In patent US20140275090A1, “BILE ACID RECYCLING INHIBITORS FOR TREATMENT OF PRIMARY SCLEROSING CHOLANGITIS AND INFLAMMATORY BOWEL DISEASE” (Lumena Pharmaceuticals, Inc., priority 2013, published 2014):

What was measured:
[1] = Toxicokinetics of LUM001 free form, 13-week oral capsule toxicity study in dogs; assay type: in vivo, Beagle dog; details: 13-wk dog capsule, 20 mg/kg
Experimental: Six- to seven-month old Beagle dogs of body weights of 4.9-9.5 kg (4/sex/group) orally via capsules at 0, 5, 20 or 100 mg/kg for 13 consecutive weeks. Plasma levels of LUM001 (free form) were evaluated on Days 1 and 91. LUM001 was administered by once daily oral gelatin capsules. […] therefore, 105% of a stated dose is given to provide the appropriate amount of compound for dosing. On study Day 1 and Day 91, approximately 2 mL of venous blood was collected in heparinized tubes from the cephalic vein of each animal at 1, 2, 3, 5, 8, and 24 hours post-dose. Blood collection tubes were mixed and placed on ice during the collection period after which they were centrifuged and the plasma was harvested into cryotubes within approximately 60 minutes of blood collection. Plasma samples were stored at approximately −70° C. or lower until analyzed.
The concentration of LUM001 free form in plasma were determined using an LC/MS/MS method. The assay sensitivity was 5.00 ng/mL for a 100 mL sample.

serum bile acids = experiment: Time to onset of activity of LUM001 on postprandial serum total bile acids (SBA) in beagle dogs; assay type: in vivo; details: dog SBA model, oral, 1 hour after feeding
Experimental: LUM001 was dissolved in water at concentrations that required the administration of 0.2 ml/kg of solution. Solutions were placed into gelatin capsules, Torpac Inc., size 13 Batch 594, East Hanover N.J., and administered orally.
Male beagle dogs were obtained from Covance Research Products, Cumberland Va. or Marshall Farms USA, Inc., North Rose N.Y. A total of 20 dogs, 1 to 5 years old, 6.8 to 15.6 kg body weight, were used in these experiments. The dogs were conditioned to a 12 hour light/dark cycle and maintained on a feeding restriction of 1 hour per day access to food (Richman Standard Certified Canine Diet #5007, PMI Nutrition, Inc., St. Louis Mo.) from 7 to 8 AM. They were trained to eat a special meal promptly within 20 minutes when presented (1 can. 397 g, Evanger's 100% Beef for Dogs, Evanger's Dog and Cat Food Co., Inc., Wheeling Ill., mixed with 50 g of sharp cheddar cheese.).
SBA was measured by an enzymatic assay. SBA values are expressed as […] of total bile acids/ml of serum.
To estimate the details of this plateau, 6 dogs were given a test meal and blood samples for SBA measurement were collected at −30, 0, 30, 60, 65, 70, 80, 90, 120, 180, 240, 360, 480, 720, 1410 and 1440 minutes from the time of feeding. Any remaining food was removed 20 min after it was first presented to the dogs. […]

SMILES: CCCCC1(CCCC)CS(=O)(=O)c2ccc(N(C)C)cc2[C@@H](c2ccc(OCc3ccc(C[N+]45CCN(CC4)CC5)cc3)cc2)[C@H]1O [LUM001]
- Cmax ([1]; Day 1, Comb): 25.1 ng/mL
- Cmax ([1]; Day 91, F): 25.0 ng/mL
- threshold dose (serum bile acids): 0.05 mg/kg
